Laboratory results reported in PubChem BioAssay AID1963964 (Molecular Pharmacology Branch, DTP, NCI, 2024).

Tested on: 997726-040-R-J2-PDC tumor spheroids, viability
Test: Anticancer human tumor 997726-040-R-J2-PDC patient-derived squamous cell lung carcinoma cell line growth inhibition [PI3K]
Conditions: spheroids with HUVEC and MSC; for IC50: curve of first compound; for viability, T/C: stronger effect = lower value
How it was run: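 Complex 3D spheroids (cancer cells + endothelial HUVEC + mesenchymal stem cells); drug pairs of targeted agent x inavolisib/alpelisib/duvelisib/copanlisib; half-log series from ~Cmax, max 10 microM if Cmax unknown; endpoint viability.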
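Note: spheroids exposed to compounds for seven days before readout.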

## CC(=O)c1c(C)c2cnc(Nc3ccc(N4CCNCC4)cn3)nc2n(C2CCCC2)c1=O + CC(Nc1ncnc2nc[nH]c12)c1cc2cccc(Cl)c2c(=O)n1-c1ccccc1
Second compound 0.0316 µM
  IC50: > 100 nM
Second compound 0.1 µM
  IC50: > 100 nM
Second compound 0.316 µM
  IC50: > 100 nM
Second compound 1 µM
  IC50: > 100 nM
Second compound 3.16 µM
  IC50: > 100 nM
Second compound 10 µM
  IC50: 10.6 nM
Second compound 0.0316 µM, first compound 0.000316 µM
  viability, T/C: 94%
Second compound 0.0316 µM, first compound 0.001 µM
  viability, T/C: 109%
Second compound 0.0316 µM, first compound 0.00316 µM
  viability, T/C: 93.7%
Second compound 0.0316 µM, first compound 0.01 µM
  viability, T/C: 87.7%
Second compound 0.0316 µM, first compound 0.0316 µM
  viability, T/C: 86.1%
Second compound 0.0316 µM, first compound 0.1 µM
  viability, T/C: 61.2%
Second compound 0.1 µM, first compound 0.000316 µM
  viability, T/C: 102%
Second compound 0.1 µM, first compound 0.001 µM
  viability, T/C: 94.8%
Second compound 0.1 µM, first compound 0.00316 µM
  viability, T/C: 91.3%
Second compound 0.1 µM, first compound 0.01 µM
  viability, T/C: 96.6%
Second compound 0.1 µM, first compound 0.0316 µM
  viability, T/C: 78.3%
Second compound 0.1 µM, first compound 0.1 µM
  viability, T/C: 65.5%
Second compound 0.316 µM, first compound 0.000316 µM
  viability, T/C: 99.8%
Second compound 0.316 µM, first compound 0.001 µM
  viability, T/C: 96.7%
Second compound 0.316 µM, first compound 0.00316 µM
  viability, T/C: 91.3%
Second compound 0.316 µM, first compound 0.01 µM
  viability, T/C: 83.5%
Second compound 0.316 µM, first compound 0.0316 µM
  viability, T/C: 81.6%
Second compound 0.316 µM, first compound 0.1 µM
  viability, T/C: 57.3%
Second compound 1 µM, first compound 0.000316 µM
  viability, T/C: 97.1%
Second compound 1 µM, first compound 0.001 µM
  viability, T/C: 85.7%
Second compound 1 µM, first compound 0.00316 µM
  viability, T/C: 86.9%
Second compound 1 µM, first compound 0.01 µM
  viability, T/C: 74.1%
Second compound 1 µM, first compound 0.0316 µM
  viability, T/C: 75.8%
Second compound 1 µM, first compound 0.1 µM
  viability, T/C: 53.3%
Second compound 3.16 µM, first compound 0.000316 µM
  viability, T/C: 72.9%
Second compound 3.16 µM, first compound 0.001 µM
  viability, T/C: 71.7%
Second compound 3.16 µM, first compound 0.00316 µM
  viability, T/C: 77.3%
Second compound 3.16 µM, first compound 0.01 µM
  viability, T/C: 70.1%
Second compound 3.16 µM, first compound 0.0316 µM
  viability, T/C: 58.4%
Second compound 3.16 µM, first compound 0.1 µM
  viability, T/C: 50.4%
Second compound 10 µM, first compound 0.000316 µM
  viability, T/C: 53.9%
Second compound 10 µM, first compound 0.001 µM
  viability, T/C: 51.6%
Second compound 10 µM, first compound 0.00316 µM
  viability, T/C: 56.9%
Second compound 10 µM, first compound 0.01 µM
  viability, T/C: 50.4%
Second compound 10 µM, first compound 0.0316 µM
  viability, T/C: 41.8%
Second compound 10 µM, first compound 0.1 µM
  viability, T/C: 43.4%
